From publication PMC5441580, “GPR40 partial agonist MK-2305 lower fasting glucose in the Goto Kakizaki rat via suppression of endogenous glucose production” (PLoS ONE, 2017)
“And” between values parts separate entries of the source, which are not always exact repeats. Equal entries are not always repeated.

Experiments:
[1] = test system: pancreatic islets of Langerhans from GPR40−/− mice; test: glucose stimulated insulin secretion (GSIS), isolated GPR40 KO islets; type: cell-based, mouse; conditions: 10 uM compound, 60 min, individual wells
Procedure: Pancreatic islets of Langerhans were isolated from wild-type and GPR40−/− mice (littermates) by collagenase digestion and discontinuous Ficoll gradient separation. […] Insulin secretion was determined by a 1 hr static incubation in Krebs-Ringer bicarbonate (KRB) buffer in a 96-well format as previously described. Briefly, islets were first preincubated in KRB medium with 2 mmol/l glucose for 30 min and were then transferred to a 96-well plate (three islets/well) and incubated with 200 μl of the KRB medium with 2 or 15 mmol/l glucose in the presence or absence of testing compounds for 60 min. The buffer was removed from the wells at the end of the incubation and assayed for insulin levels using the Ultrasensitive Rat Insulin ELISA kit (ALPCO, Salem, NH). All insulin secretion data were normalized by total islet numbers (ex: three islets/well), so the unit is secreted insulin (ng/ml) per islet.

GK rats = test: GK rat acute oral glucose tolerance test (OGTT) with insulin co-measurement; type: in vivo; parameters: Blood Glucose AUC / Insulin AUC: unit not given here; conditions: for Blood Glucose / Insulin (plasma) / Insulin AUC / Blood Glucose AUC: individual GK rats; for Insulin AUC: OGTT t = 0 to 60 min; for Blood Glucose AUC: OGTT t = 0 to 120 min
Procedure: On the day of the study, male GK rats were bled via tail snip, and blood glucose was measured via glucometer (OneTouch Ultra, Lifescan Inc., Milpitas, CA). Fed glucose was measured at 8 A.M. (lights on 7 A.M.– 7 P.M.) and used to select and sort animals into treatment groups (n = 8/ GK group, plus n = 6/WKY control group). Animals were then placed into clean cages, and food was removed. […] Dosages from 0.3–10 mg MK-2305 / kg body weight were tested. Both the GK and WKY control groups received vehicle (0.5% methylcellulose). Blood glucose was measured again (time = 0) immediately prior to a dextrose challenge of 1 g/kg at 10 ml/kg dose volume (Dextrose, Hospira Inc., Lake Forrest IL) and then again at 20, 40, 60, and 120 min after the glucose challenge. Insulin was co-measured to test the glucose-dependent secretory response to MK-2305 delivered acutely PO. […] […] Values of percent inhibition vs. vehicle for each treatment were generated from the AUC data. Maximally efficacious dose (MED) was defined as the minimum dosage generating a maximum inhibition of glucose excursion achieved with this compound in the OGTT assay.
Plasma was analyzed for triglycerides, NEFA, and HbA1C using a P Modular Roche Clinical Chemistry analyzer. Liver triglycerides were extracted as described by Bligh and Dyer, and were measured using the Infinity triglyceride assay kit (Thermo Scientific, Rockford, IL). Plasma insulin levels were measured via EIA (Mesoscale Discovery ELISA Kit, Gaithersburg MD).

[2] = 10 mg/kg PO, GK rats, p < 0.001
[3] = 0.3 mpk PO, 60 min after glucose challenge
[4] = 1 mpk PO, 60 min after glucose challenge
[5] = 3 mpk PO, 60 min after glucose challenge

O=C1NC(=O)C(C2CCOc3cc(Oc4ccc(C(F)(F)F)cc4Cl)ccc32)S1 (stereo not drawn) [MK-2305]
secreted insulin per islet ([1]; 2mM glucose): 0.3958 ng/ml per islet and 0.3056 ng/ml per islet and 0.5799 ng/ml per islet and 0.6404 ng/ml per islet and 0.5029 ng/ml per islet and 1.032 ng/ml per islet and 0.612 ng/ml per islet and 0.7615 ng/ml per islet
secreted insulin per islet ([1]; 15 mM Glucose): 2.615 ng/ml per islet and 3.66 ng/ml per islet and 2.83 ng/ml per islet and 4.29 ng/ml per islet and 3.64 ng/ml per islet and 2.75 ng/ml per islet and 4.57 ng/ml per islet and 4.28 ng/ml per islet
decrease of glucose AUC vs. vehicle in OGTT (GK rats; 0.3 mg/kg PO, GK rats, p < 0.001): 18%
increase in plasma insulin vs. vehicle during OGTT (GK rats; 1 mg/kg PO, GK rats, p < 0.001): 59%
increase in plasma insulin vs. vehicle during OGTT (GK rats; 3 mg/kg PO, GK rats, p < 0.001): 83%
reduction in glucose AUC from vehicle in OGTT (GK rats; 3 mg/kg PO, GK rats, p < 0.001): 40%
decrease of glucose AUC vs. vehicle in OGTT (GK rats; [2]): 54%
increase in plasma insulin vs. vehicle during OGTT (GK rats; [2]): 124%
Blood Glucose (GK rats; 0.3 mpk PO, 40 min after glucose challenge): 254 mg/dl and 284 mg/dl and 328 mg/dl and 294 mg/dl (2×) and 264 mg/dl and 219 mg/dl and 321 mg/dl
Blood Glucose (GK rats; [3]): 197 mg/dL and 204 mg/dL and 264 mg/dL and 233 mg/dL and 229 mg/dL and 270 mg/dL and 209 mg/dL and 330 mg/dL
Insulin (plasma) (GK rats; [3]): 1.219 ng/mL and 1.901 ng/mL and 1.676 ng/mL and 1.551 ng/mL and 1.782 ng/mL and 1.959 ng/mL and 1.355 ng/mL and 1.696 ng/mL
Blood Glucose (GK rats; 0.3 mpk PO, 120 min after glucose challenge): 149 mg/dL and 196 mg/dL and 217 mg/dL and 188 mg/dL and 177 mg/dL and 203 mg/dL and 145 mg/dL and 249 mg/dL
Insulin AUC (GK rats; 0.3 mpk PO): 107.011 and 73.5773 and 77.5052 and 96.9965 and 105.345 and 92.3289 and 113.426 and 113.509
Blood Glucose AUC (GK rats; 0.3 mpk PO): 30355 and 22170 and 34265 and 24465 and 25900 and 30390 and 27140 and 25850
Insulin (plasma) (GK rats; 0.3 mpk PO, time 0 min (before glucose challenge)): 1.527 ng/mL and 1.4 ng/mL and 1.238 ng/mL and 1.748 ng/mL and 1.648 ng/mL and 1.595 ng/mL and 1.041 ng/mL and 1.268 ng/mL
Insulin (plasma) (GK rats; 0.3 mpk PO, time -70 min (before dosing)): 0.785 ng/mL and 1.027 ng/mL and 1.247 ng/mL and 1.425 ng/mL and 1.262 ng/mL and 0.879 ng/mL and 0.539 ng/mL and 0.638 ng/mL
Blood Glucose (GK rats; 1 mpk PO, 40 min after glucose challenge): 191 mg/dL and 247 mg/dL and 193 mg/dL and 178 mg/dL and 222 mg/dL and 184 mg/dL and 221 mg/dL and 228 mg/dL
Blood Glucose (GK rats; [4]): 162 mg/dL and 197 mg/dL and 120 mg/dL and 151 mg/dL and 200 mg/dL and 153 mg/dL and 188 mg/dL and 185 mg/dL
Insulin (plasma) (GK rats; [4]): 1.868 ng/mL and 1.957 ng/mL and 1.358 ng/mL and 2.073 ng/mL and 2.523 ng/mL and 1.285 ng/mL and 2.265 ng/mL and 1.751 ng/mL
Blood Glucose (GK rats; 1 mpk PO, 120 min after glucose challenge): 120 mg/dL and 147 mg/dL and 101 mg/dL and 113 mg/dL and 162 mg/dL and 119 mg/dL and 110 mg/dL and 132 mg/dL
Insulin AUC (GK rats; 1 mpk PO): 127.564 and 125.822 and 145.583 and 145.346 and 124.296 and 92.8339 and 131.803 and 160.953
Blood Glucose AUC (GK rats; 1 mpk PO): 18600 and 21570 and 21405 and 19360 and 22440 and 17695 and 17840 and 23185
Insulin (plasma) (GK rats; 1 mpk PO, time 0 min (before glucose challenge)): 1.711 ng/mL and 2.457 ng/mL and 1.219 ng/mL and 2.149 ng/mL and 2.161 ng/mL and 2.386 ng/mL and 1.648 ng/mL and 2.525 ng/mL
Insulin (plasma) (GK rats; 1 mpk PO, time -70 min (before dosing)): 0.867 ng/mL and 1.049 ng/mL and 0.952 ng/mL and 1.247 ng/mL and 1.294 ng/mL and 0.937 ng/mL and 1.068 ng/mL and 1.695 ng/mL
Blood Glucose (GK rats; 3 mpk PO, 40 min after glucose challenge): 134 mg/dl and 184 mg/dl and 174 mg/dl (2×) and 183 mg/dl and 148 mg/dl and 181 mg/dl and 197 mg/dl
Blood Glucose (GK rats; [5]): 117 mg/dl and 116 mg/dl (2×) and 128 mg/dl and 136 mg/dl and 121 mg/dl and 86 mg/dl and 167 mg/dl
Insulin (plasma) (GK rats; [5]): 1.611 ng/mL and 1.625 ng/mL and 1.542 ng/mL and 2.593 ng/mL and 2.136 ng/mL and 0.682 ng/mL and 1.668 ng/mL and 1.737 ng/mL
Blood Glucose (GK rats; 3 mpk PO, 120 min after glucose challenge): 98 mg/dl and 130 mg/dl and 111 mg/dl and 112 mg/dl and 104 mg/dl (2×) and 78 mg/dl and 124 mg/dl
Insulin AUC (GK rats; 3 mpk PO): 154.858 and 139.888 and 150.655 and 143.381 and 149.287 and 136.931 and 166.524 and 165.471
Blood Glucose AUC (GK rats; 3 mpk PO): 13845 and 15230 and 19575 and 14655 and 17655 and 16235 and 16890 and 15775
